Laboratory results taken from patent EP4088745A1, “COMPOUND FOR THE DIAGNOSIS OF CANCER” (Eberhard Karls Universität Tübingen Medizinische Fakultät, priority 2021, dated 2022).

Columns and labels:
[1] = Serum stability analysis in mouse serum; type: in vitro ADME; conditions: over a time course of 240 minutes; Fig 7 B
[2] = Serum stability analysis in human serum; type: in vitro ADME; conditions: over a time course of 240 minutes; Fig 7 B
[3] = system: HCC1937 xenograft; test: PET imaging and ex vivo biodistribution in xenograft-bearing mice
Description: All animal experiments were performed according to the German animal welfare act and approved by the local authorities (Regierungsprasidium Tübingen, R3/18). Animals were housed in individually ventilated cages (IVCs, 5 mice per cage) with bedding and enrichment, and food and water was provided ad libitum. Animals were kept under isoflurane anesthetic (1.5 % in pure oxygen, 1.5 l/min) during the experiments. 1×10^7 cells in 1:1 ice-cold Matrigel (Thermo Scientific) / PBS were injected subcutaneously in the right shoulder area of 7 week-old female NOD.CB17-Prkdc^scid/J mice (n = 5). […] The mice underwent a second, 10 min static PET scan 2 h post-injection (p.i.). Mice were sacrificed by cervical dislocation, the collected organs were weighed and the tissue uptake was determined by gamma-counting (WIZARD2, PerkinElmer). PET image reconstruction and correlation with MR images was performed with Inveon Acquisition Workplace and Inveon Research Workplace, respectively, using a user-defined dynamic framing and an ordered subset expectation maximization (OSEM3D) algorithm. Regions of interest (ROIs) were drawn according to the acquired MR images and co-registered with the PET data to obtain time-activity curves (TACs).
Statistical analyses were performed with GraphPad Prism 9 using non-parametric t-tests and are represented as mean value ± standard deviation. Blood half-life was calculated using a two-phase decay fit. P-values < 0.05 were considered statistically significant according to the software (*: p < 0.05, **: p < 0.01, ***: p < 0.001, ****: p < 0.0001).

[4] = system: HCC1937 cells; test: In vitro radiotracer uptake; type: cell-based, Human
Description: Human breast carcinoma cells (HCC1937, ACC513) were purchased from the German Collection of Microorganisms and Cell Cultures (DSMZ GmbH, Braunschweig, Germany) and cultured in Roswell Park Memorial Institute (RPMI) 1640 medium supplemented with 16 % fetal calf serum (FCS), 100 U/ml penicillin and 100 µg/ml streptomycin at 37°C under humid 5 % CO2 atmosphere. Absence of mycoplasma infection was confirmed by PCR analysis in monthly intervals.
After 30 min of incubation at 37°C, the cells were washed by vacuum filtration of medium through the plate (2×100 µl followed by 2×200 µl), the filters were transferred into tubes using a commercial punch kit (MAMP09608, Merck) and measured in a gamma counter (Wizard 2, Perkin-Elmer, Waltham, MA, USA). Experiments were performed in triplicates and the uptake was quantified as percent of added activity.

[5] = system: HCC1937 cells; test: Competition assay of radiotracer uptake; type: cell-based, Human; conditions: 1:2 serial dilution starting at 1µM; Fig. 11
Description: Human breast carcinoma cells (HCC1937, ACC513) were purchased from the German Collection of Microorganisms and Cell Cultures (DSMZ GmbH, Braunschweig, Germany) and cultured in Roswell Park Memorial Institute (RPMI) 1640 medium supplemented with 16 % fetal calf serum (FCS), 100 U/ml penicillin and 100 µg/ml streptomycin at 37°C under humid 5 % CO2 atmosphere. Absence of mycoplasma infection was confirmed by PCR analysis in monthly intervals. […] After 30 min of incubation at 37°C, the cells were washed by vacuum filtration of medium through the plate (2×100 µl followed by 2×200 µl), the filters were transferred into tubes using a commercial punch kit (MAMP09608, Merck) and measured in a gamma counter (Wizard 2, Perkin-Elmer, Waltham, MA, USA). Experiments were performed in triplicates and the uptake was quantified as percent of added activity.

SMILES: Cn1ncnc1[C@H]1c2n[nH]c(=O)c3cc(F)cc(c23)N[C@@H]1c1ccc([18F])cc1 [[^18F] talazoparib, (8S,9R)-5-Fluoro-8-(4-^18fluorophenyl)-2,7,8,9-tetrahydro-9-(1-methyl-1H-1,2,4-triazol-5-yl)-3H-pyrido[4,3,2-de]phthalazin-3-one]
- Stability in mouse serum [1]: no radiometabolite was detected
- Stability in human serum [2]: no radiometabolite was detected
- absolute xenograft uptake ([3]; biodistribution analysis 2.5 h p.i., n = 5): 3.7 ± 0.71 %ID/g
- calculated blood half-life ([3]; blood TAC, two-phase decay fit): 3.3 min
- uptake in the brain tissue ([3]; mouse, in vivo): very low uptake
- uptake in HCC1937 cells ([4]; 30 min incubation at 37°C, Fig. 7A): high uptake
- uptake blocked by excess olaparib and talazoparib ([4]; blocking with olaparib or talazoparib, final concentration 25 µM): blockable to baseline

SMILES: Cn1ncnc1[C@H]1c2n[nH]c(=O)c3cc(F)cc(c23)N[C@@H]1c1ccc(F)cc1 [talazoparib, (8S,9R)-5-Fluoro-8-(4-fluorophenyl)-2,7,8,9-tetrahydro-9-(1-methyl-1H-1,2,4-triazol-5-yl)-3H-pyrido[4,3,2-de]phthalazin-3-one]
- blocking of the [^18F]talazoparib signal compared to olaparib [5]: blocked the signal more effective
